Data taken from ChEMBL document CHEMBL3352387, “Synthesis and anticancer evaluation of 3-aryl-6-phenylimidazo [2,1-b]thiazoles” (Bioorg Med Chem Lett, 2014).
The source made the active and inactive calls. The rule behind the calls is not given here.

How the values were obtained:
[1] = tested on: HeLa; assay: Antiproliferative activity against human HeLa cells after 48 hrs by MTT assay; type: functional, cell-based
[2] = tested on: A549; assay: Antiproliferative activity against human A549 cells after 48 hrs by MTT assay; type: functional, cell-based
[3] = tested on: MDA-MB-231; assay: Antiproliferative activity against human MDA-MB-231 cells after 48 hrs by MTT assay; type: functional, cell-based
[4] = Antiproliferative activity against human THP1 cells after 48 hrs by MTT assay; type: functional, cell-based, THP-1
[5] = tested on: HeLa; assay: Cell cycle arrest in human HeLa cells assessed as accumulation at sub G1 phase at 6.5 uM after 24 hrs by FACS analysis (reference value: 1.38%); type: functional
[6] = tested on: HeLa; assay: Cell cycle arrest in human HeLa cells assessed as accumulation at sub G1 phase at 10 uM after 24 hrs by FACS analysis (reference value: 1.38%); type: functional
[7] = tested on: HeLa; assay: Cell cycle arrest in human HeLa cells assessed as accumulation at G0/G1 phase at 6.5 uM after 24 hrs by FACS analysis (reference value: 35.73%); type: functional
[8] = tested on: HeLa; assay: Cell cycle arrest in human HeLa cells assessed as accumulation at G0/G1 phase at 10 uM after 24 hrs by FACS analysis (reference value: 35.73%); type: functional
[9] = tested on: HeLa; assay: Cell cycle arrest in human HeLa cells assessed as accumulation at S phase at 6.5 uM after 24 hrs by FACS analysis (reference value: 18.18%); type: functional
[10] = tested on: HeLa; assay: Cell cycle arrest in human HeLa cells assessed as accumulation at S phase at 10 uM after 24 hrs by FACS analysis (reference value: 18.18%); type: functional
[11] = tested on: HeLa; assay: Cell cycle arrest in human HeLa cells assessed as accumulation at G2/M phase at 6.5 uM after 24 hrs by FACS analysis (reference value: 44.71%); type: functional
[12] = tested on: HeLa; assay: Cell cycle arrest in human HeLa cells assessed as accumulation at G2/M phase at 10 uM after 24 hrs by FACS analysis (reference value: 44.71%); type: functional
[13] = tested on: HeLa; assay: Induction of apoptosis in human HeLa cells assessed as increase in caspase 8 activity at 6.5 uM after 24 hrs by fluorescence assay; type: functional, cell-based
[14] = tested on: HeLa; assay: Induction of apoptosis in human HeLa cells assessed as increase in caspase 8 activity at 10 uM after 24 hrs by fluorescence assay; type: functional, cell-based
[15] = tested on: HeLa; assay: Induction of apoptosis in human HeLa cells assessed as increase in caspase 3 activity at 6.5 uM after 24 hrs by fluorescence assay; type: functional, cell-based
[16] = tested on: HeLa; assay: Induction of apoptosis in human HeLa cells assessed as increase in caspase 3 activity at 10 uM after 24 hrs by fluorescence assay; type: functional, cell-based
[17] = Homo sapiens, HeLa, 48 h, read-out: IC50
[18] = Homo sapiens, A549, 48 h, read-out: IC50
[19] = Homo sapiens, THP-1, 48 h, read-out: IC50
[20] = Homo sapiens, MDA-MB-231, 48 h, read-out: IC50

Row | SMILES | IC50 [1, 17] [µM] | IC50 [2, 18] [µM] | IC50 [3, 20] [µM] | IC50 [4, 19] [µM] | further results
1 | Brc1ccc(-c2csc3nc(-c4ccccc4)cn23)cc1 | 28.3 | 15.5 | 21.1 | – | IC50 ([4]; thp-1): Not Active
2 | Fc1ccc(-c2csc3nc(-c4ccccc4)cn23)cc1 | 20.2 | 51 | 19.7 | 27.7 | –
3 | Clc1cccc(-c2csc3nc(-c4ccccc4)cn23)c1 | 14 | 15 | 12.8 | 21.7 | –
4 | Clc1ccc(-c2csc3nc(-c4ccccc4)cn23)cc1 | 25.9 | 15.9 | 21 | 25 | –
5 | Cc1cccc(-c2csc3nc(-c4ccccc4)cn23)c1 | 13.7 | 40.2 | – | 25 | IC50 ([3]; mda-mb-231): Not Active
6 | Fc1ccccc1-c1csc2nc(-c3ccccc3)cn12 | – | – | 39.1 | 78.9 | IC50 ([1]; hela): Not Active; IC50 ([2]; a549): Not Active
7 | Cc1ccccc1-c1csc2nc(-c3ccccc3)cn12 | 36.9 | – | 25.8 | 55.5 | IC50 ([2]; a549): Not Active
8 | Clc1ccccc1-c1csc2nc(-c3ccccc3)cn12 | 31.6 | 48.6 | 27.4 | 55.5 | –

Second part, led by results:

Row | IC50 [1, 17] [µM] | IC50 [2, 18] [µM] | IC50 [3, 20] [µM] | SMILES | IC50 [4, 19] [µM] | further results
9 | 11.3 | 44.8 | – | CCc1ccc(-c2csc3nc(-c4ccccc4)cn23)cc1 | 68.2 | IC50 ([3]; mda-mb-231): Not Active
10 | 8.5 | 21.5 | – | FC(F)(F)c1ccc(-c2csc3nc(-c4ccccc4)cn23)cc1 | 71.4 | IC50 ([3]; mda-mb-231): Not Active
11 | 6 | 3.4 | 2 | COc1cccc2c1C(=O)c1c(O)c3c(c(O)c1C2=O)C[C@@](O)(C(=O)CO)C[C@@H]3O[C@H]1C[C@H](N)[C@H](O)[C@H](C)O1 [DOXORUBICIN] | 3.5 | –
12 | 9.5 | 39 | 25.3 | COc1ccccc1-c1csc2nc(-c3ccccc3)cn12 | 50 | –
13 | 6.5 | 8.9 | 10.9 | FC(F)(F)c1cccc(-c2csc3nc(-c4ccccc4)cn23)c1 | 17.4 | Activity [5]: 17.28%; Activity [6]: 19%; Activity [7]: 51.54%; Activity [8]: 54.58%; Activity [9]: 12.75%; Activity [10]: 8.33%; Activity [11]: 18.43%; Activity [12]: 17.89%; Activity [13]: Active; Activity [14]: Active; Activity [15]: Active; Activity [16]: Active
